For the assay, the target named is T1, mouse RBP4 (Mus musculus, UniProt Q00724).
T1 construct: 6XHis; made in house; host or cells: E. coli
In words: Surface plasmon resonance (SPR) binding of SYL-motif peptides to immobilized RBP4. The settings on record: SPR affinity fit, Figure 6B; repeated in the discussion as calculated binding affinity; read-out: Best-fit values Kd. As for the experimental part: Purified RBP4 protein with >90% purity and 0.56 mg/mL concentration was immobilized on Biacore Sensor Chip CM5 (ITDD Biacore S200 Surface Plasmon Resonance instrument at University of Minnesota). The two-flow cell surface activated for using one as blank and other as test. Using Amine Coupling Kit (Cat. No. BR100050; Cytiva, Marlborough, MA, US) 1-ethyl-3-(3-dimethylaminopropyl) carbodiimide hydrochloride (EDC), N-hydroxysuccinimide (NHS), after surface activation, the purified RBP4 with immobilization buffer 10 mM Sodium acetate, pH 5.0, was immobilized with target of 1,200 Response Unit (RU) for achieving Rmax of 30RU in kinetic study. The reaction stopped and washed with Ethanolamine. The system was re-primed with running buffer PBST (phosphate-buffered saline solution with a 0.05% Tween20 detergent solution). The kinetic assay performed on the two flow cells, the blank was used as reference cell and the active cell with RBP4 was used for the binding study. […] The program was run and non-specific binding on the reference cell subtracted bulk refractive index from the active sensorgram and analyzed for the association, dissociation and stabilization of the reads. […]

pKd: −log10 of the molar value. No end group written: not given here.

The pKd is the negative decadic logarithm of the Kd, by convention in mol/L. On to “HVRDKLDMFEDKLESYLTHMNETGTLTPIILQVKELISVTKG [mouse RBPR2]”, for which the pKd is 4.59.

The values above are taken from paper PMC9992173, “Mapping of the extracellular RBP4 ligand binding domain on the RBPR2 receptor for Vitamin A transport” (Frontiers in Cell and Developmental Biology, 2023).
